Laboratory results reported in patent publication US9023865B2, “Compounds that are ERK inhibitors” (Merck Sharp & Dohme Corp., priority 2011, dated 2015).
Read-outs that look alike come from different tables or passages of the source.

Target: Active Human ERK2 (hERK2) (Homo sapiens (Human), UniProt P28482)
Test: Active Human ERK2 (hERK2) Activity Assay (IMAP-FP)
Format: biochemical
Protocol: Assays Active Human ERK2 (hERK2) Activity Assay:
Activated ERK2 activity was determined in an IMAP-FP assay (Molecular Devices). […] The final reaction in each well of 25 μL consists of 0.5 nM hERK2, 900 nM unlabeled peptide, 80 nM labeled-peptide, and 30 μM ATP. Phosphorylation reactions were allowed to proceed for 60 minutes and were immediately quenched by the addition of […] IMAP detection beads (1:1000 dilutions) in IMAP binding buffer (Molecular Devices) with 24 mM NaCl. Plates were read on EnVision reader after 60 minutes binding equilibration using Fluorescence Polarization protocol (Perkin Elmer).

[1] = phosphorylated active hERK2, 30 μM ATP, average, read-out: ERK 2 Human average IC50
[2] = read-out: AERK2 IC50 (Active human ERK2 Activity Assay)

Active Human ERK2 (hERK2), sequence (P28482 whole entry): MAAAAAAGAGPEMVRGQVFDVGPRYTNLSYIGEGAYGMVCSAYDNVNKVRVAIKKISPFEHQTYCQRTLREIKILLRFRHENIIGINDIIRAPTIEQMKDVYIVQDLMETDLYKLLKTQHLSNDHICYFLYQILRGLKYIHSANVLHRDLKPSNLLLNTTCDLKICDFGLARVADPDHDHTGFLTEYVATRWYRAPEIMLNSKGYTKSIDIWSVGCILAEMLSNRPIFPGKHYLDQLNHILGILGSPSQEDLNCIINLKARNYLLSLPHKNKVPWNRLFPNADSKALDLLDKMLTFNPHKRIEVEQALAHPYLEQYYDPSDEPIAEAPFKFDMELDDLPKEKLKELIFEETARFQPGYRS

Row | IC50 [1] [nM] | IC50 [2] [nM] | SMILES
1 | 0.713 | 0.2 to 1.7 | Cc1cc(-c2n[nH]c3cc(NC(=O)NCc4cccc(Cl)c4)ncc23)ccn1 [Example 27, 1-(3-chlorobenzyl)-3-[3-(2-methylpyridin-4-yl)-1H-pyrazolo[4,3-c]pyridin-6-yl]urea]
2 | 3.63 |  | CC(C)Oc1ccc(-c2n[nH]c3cc(NC(=O)N[C@H](C)c4ccccc4)ncc23)cn1 [Example 28, 1-{3-[6-(1-methylethoxy)pyridin-3-yl]-1H-pyrazolo[4,3-c]pyridin-6-yl}-3-[(1R)-1-phenylethyl]urea]
3 | 0.334 | 0.2 to 1.7 | C[C@@H](NC(=O)Nc1cc2[nH]nc(-c3cnn(C)c3)c2cn1)c1ccccc1 [Example 29, 1-[3-(1-methyl-1H-pyrazol-4-yl)-1H-pyrazolo[4,3-c]pyridin-6-yl]-3-[(1R)-1-phenylethyl]urea]
4 | 0.85 | 0.2 to 1.7 | C[C@@H](NC(=O)Nc1cc2[nH]nc(-c3ccc(F)cc3)c2cn1)c1ccccc1 [Example 30, 1-[3-(4-fluorophenyl)-1H-pyrazolo[4,3-c]pyridin-6-yl]-3-[(1R)-1-phenylethyl]urea]
5 | 0.29 | 0.2 to 1.7 | Cc1cc(-c2n[nH]c3cc(NC(=O)N[C@H](C)c4ccccc4)ncc23)cc(C)n1 [Example 31, 1-[3-(2,6-dimethylpyridin-4-yl)-1H-pyrazolo[4,3-c]pyridin-6-yl]-3-[(1R)-1-phenylethyl]urea]
6 | 3.92 |  | Cc1cc(-c2n[nH]c3cc(NC(=O)NCc4cccc5ccccc45)ncc23)ccn1 [Example 32, 1-[3-(2-methylpyridin-4-yl)-1H-pyrazolo[4,3-c]pyridin-6-yl]-3-(naphthalen-1-ylmethyl)urea]
7 | 15.2 |  | COc1ccc(CNC(=O)Nc2cc3[nH]nc(-c4ccc(F)cc4)c3cn2)cc1OC [Example 33, 1-(3,4-dimethoxybenzyl)-3-(3-(4-fluorophenyl)-1H-pyrazolo[4,3-c]pyridin-6-yl)urea]
8 | 1.68 | 0.2 to 1.7 | NC(=O)Nc1cc2[nH]nc(-c3ccc(F)cc3)c2cn1 [Example 34, 1-(3-(4-fluorophenyl)-1H-pyrazolo[4,3-c]pyridin-6-yl)urea]
9 | 2.1 |  | Cc1cc(-c2n[nH]c3cc(NC(=O)NCC4CC4)ncc23)ccn1 [Example 35, 1-(cyclopropylmethyl)-3-[3-(2-methylpyridin-4-yl)-1H-pyrazolo[4,3-c]pyridin-6-yl]urea]
10 | 32.6 |  | Cc1cc(-c2n[nH]c3cc(NC(=O)NC(C)(C)C)ncc23)ccn1 [Example 36, 1-tert-butyl-3-[3-(2-methylpyridin-4-yl)-1H-pyrazolo[4,3-c]pyridin-6-yl]urea]
11 | 9.9 |  | Cc1cc(-c2n[nH]c3cc(NC(=O)NCC4(O)CC4)ncc23)ccn1 [Example 37]
12 | 481 |  | Cc1cc(-c2n[nH]c3cc(NC(=O)NC=C4CC4)ncc23)ccn1 [Example 38, 1-(cyclopropylidenemethyl)-3-[3-(2-methylpyridin-4-yl)-1H-pyrazolo[4,3-c]pyridin-6-yl]urea]
13 | 60.3 |  | Cc1cc(-c2n[nH]c3cc(NC(=O)NC4CNC4)ncc23)ccn1 [Example 39, 1-azetidin-3-yl-3-[3-(2-methylpyridin-4-yl)-1H-pyrazolo[4,3-c]pyridin-6-yl]urea]
14 | 2.9 |  | COCCNC(=O)Nc1cc2[nH]nc(-c3ccnc(C)c3)c2cn1 [Example 40, 1-(2-methoxyethyl)-3-[3-(2-methylpyridin-4-yl)-1H-pyrazolo[4,3-c]pyridin-6-yl]urea]
15 | 4.48 |  | Cc1cc(-c2n[nH]c3cc(NC(=O)NC(C4CC4)C(F)(F)F)ncc23)ccn1 (stereo not shown) [Example 41, 1-(1-cyclopropyl-2,2,2-trifluoroethyl)-3-[3-(2-methylpyridin-4-yl)-1H-pyrazolo[4,3-c]pyridin-6-yl]urea]
16 | 0.934 | 0.2 to 1.7 | Cc1cc(-c2n[nH]c3cc(NC(=O)NCc4csc(C)n4)ncc23)ccn1 [Example 43, 1-[3-(2-methylpyridin-4-yl)-1H-pyrazolo[4,3-c]pyridin-6-yl]-3-[(2-methyl-1,3-thiazol-4-yl)methyl]urea]
17 | 2.74 |  | Cc1cc(-c2n[nH]c3cc(NC(=O)NCc4ccc5ccccc5c4)ncc23)ccn1 [Example 45, 1-[3-(2-methylpyridin-4-yl)-1H-pyrazolo[4,3-c]pyridin-6-yl]-3-(naphthalen-2-ylmethyl)urea]
18 | 763 |  | Cc1cc(-c2n[nH]c3cc(NC(=O)N(C)Cc4cccnc4)ncc23)ccn1 [Example 46, 1-methyl-3-[3-(2-methylpyridin-4-yl)-1H-pyrazolo[4,3-c]pyridin-6-yl]-1-(pyridin-3-ylmethyl)urea]

Row | IC50 [1] [nM] | IC50 [2] [nM] | SMILES
19 | 2.34 |  | Cc1cc(-c2n[nH]c3cc(NC(=O)NCCc4ccccn4)ncc23)ccn1 [Example 47, 1-[3-(2-methylpyridin-4-yl)-1H-pyrazolo[4,3-c]pyridin-6-yl]-3-(2-pyridin-2-ylethyl)urea]
20 | 1.04 | 0.2 to 1.7 | Cc1cc(-c2n[nH]c3cc(NC(=O)NC(C)c4cccnc4)ncc23)ccn1 (stereo not shown) [Example 49, 1-[3-(2-methylpyridin-4-yl)-1H-pyrazolo[4,3-c]pyridin-6-yl]-3-(1-pyridin-3-ylethyl)urea]
21 | 899 |  | COCCN(Cc1cccnc1)C(=O)Nc1cc2[nH]nc(-c3ccnc(C)c3)c2cn1 [Example 50, 1-(2-methoxyethyl)-3-[3-(2-methylpyridin-4-yl)-1H-pyrazolo[4,3-c]pyridin-6-yl]-1-(pyridin-3-ylmethyl)urea]
22 | 1 | 0.2 to 1.7 | Cc1cc(-c2n[nH]c3cc(NC(=O)NCc4cncc(F)c4)ncc23)ccn1 [Example 51, 1-[(5-fluoropyridin-3-yl)methyl]-3-[3-(2-methylpyridin-4-yl)-1H-pyrazolo[4,3-c]pyridin-6-yl]urea]
23 | 0.655 | 0.2 to 1.7 | Cc1cc(-c2n[nH]c3cc(NC(=O)NCc4c(F)cccc4F)ncc23)ccn1 [Example 52, 1-(2,6-difluorobenzyl)-3-[3-(2-methylpyridin-4-yl)-1H-pyrazolo[4,3-c]pyridin-6-yl]urea]
24 | 0.245 | 0.2 to 1.7 | Cc1cc(-c2n[nH]c3cc(NC(=O)NCc4cccc(F)c4)ncc23)ccn1 [Example 53, 1-(3-fluorobenzyl)-3-[3-(2-methylpyridin-4-yl)-1H-pyrazolo[4,3-c]pyridin-6-yl]urea]
25 | 6.52 |  | Cc1cc(-c2n[nH]c3cc(NC(=O)NCc4ccc(C(F)(F)F)cc4)ncc23)ccn1 [Example 54, 1-[3-(2-methylpyridin-4-yl)-1H-pyrazolo[4,3-c]pyridin-6-yl]-3-[4-(trifluoromethyl)-benzyl]urea]
26 | 35 |  | Cc1cc(-c2n[nH]c3cc(NC(=O)Nc4ccc(NCCc5ccccc5)nn4)ncc23)ccn1 [Example 55, 1-[3-(2-methylpyridin-4-yl)-1H-pyrazolo[4,3-c]pyridin-6-yl]-3-{6-[(2-phenylethyl)amino]pyridazin-3-yl}urea]
27 | 0.411 | 0.2 to 1.7 | Cc1cc(-c2n[nH]c3cc(NC(=O)NCc4ccc(F)c(Cl)c4)ncc23)ccn1 [Example 56, 1-(3-chloro-4-fluorobenzyl)-3-[3-(2-methylpyridin-4-yl)-1H-pyrazolo[4,3-c]pyridin-6-yl]urea]
28 | 1.84 | 0.2 to 1.7 | C[C@@H](NC(=O)Nc1cc2[nH]nc(-c3ccnc(F)c3)c2cn1)c1ccc(Cl)cc1 [Example 57, 1-[(1R)-1-(4-chlorophenyl)ethyl]-3-[3-(2-fluoropyridin-4-yl)-1H-pyrazolo[4,3-c]pyridin-6-yl]urea]
29 | 1 | 0.2 to 1.7 | O=C(NCc1ccc(F)c(Cl)c1)Nc1cc2[nH]nc(-c3ccnc(F)c3)c2cn1 [Example 58, 1-(3-chloro-4-fluorobenzyl)-3-[3-(2-fluoropyridin-4-yl)-1H-pyrazolo[4,3-c]pyridin-6-yl]urea]
30 | 0.514 | 0.2 to 1.7 | C[C@@H](NC(=O)Nc1cc2[nH]nc(-c3cnn(C)c3)c2cn1)c1ccc(Cl)cc1 [Example 59, 1-[(1R)-1-(4-chlorophenyl)ethyl]-3-[3-(1-methyl-1H-pyrazol-4-yl)-1H-pyrazolo[4,3-c]pyridin-6-yl]urea]
31 | 0.251 | 0.2 to 1.7 | Cn1cc(-c2n[nH]c3cc(NC(=O)NCc4ccc(F)c(Cl)c4)ncc23)cn1 [Example 60, 1-(3-chloro-4-fluorobenzyl)-3-[3-(1-methyl-1H-pyrazol-4-yl)-1H-pyrazolo[4,3-c]pyridin-6-yl]urea]
32 | 127 |  | Cc1cc(-c2n[nH]c3cc(NC(=O)Nc4ccccc4)ncc23)ccn1 [Example 61, 1-[3-(2-methylpyridin-4-yl)-1H-pyrazolo[4,3-c]pyridin-6-yl]-3-phenylurea]
33 | 0.672 | 0.2 to 1.7 | C[C@@H](NC(=O)Nc1cc2[nH]nc(-c3ccc4nn(C)cc4c3)c2cn1)c1cccc(Cl)c1 [Example 62, 1-[(1R)-1-(3-chlorophenyl)ethyl]-3-[3-(2-methyl-2H-indazol-5-yl)-1H-pyrazolo[4,3-c]pyridin-6-yl]urea]
34 | 0.405 | 0.2 to 1.7 | C[C@@H](NC(=O)Nc1cc2[nH]nc(-c3ccc4nn(C)cc4c3)c2cn1)c1ccc(F)cc1 [Example 63, 1-[(1R)-1-(4-fluorophenyl)ethyl]-3-[3-(2-methyl-2H-indazol-5-yl)-1H-pyrazolo[4,3-c]pyridin-6-yl]urea]
35 | 0.586 | 0.2 to 1.7 | Cn1cc2cc(-c3n[nH]c4cc(NC(=O)NCc5ccc(F)c(Cl)c5)ncc34)ccc2n1 [Example 64, 1-(3-chloro-4-fluorobenzyl)-3-[3-(2-methyl-2H-indazol-5-yl)-1H-pyrazolo[4,3-c]pyridin-6-yl]urea]
36 | 0.562 | 0.2 to 1.7 | C[C@@H](NC(=O)Nc1cc2[nH]nc(-c3ccc4nn(C)cc4c3)c2cn1)c1ccc(Cl)cc1 [Example 65, 1-[(1R)-1-(4-chlorophenyl)ethyl]-3-[3-(2-methyl-2H-indazol-5-yl)-1H-pyrazolo[4,3-c]pyridin-6-yl]urea]
